Measured values published in article PMC2894858 (PLoS ONE, 2010).
Where two headings read alike, the source gives them in different places. Non-standard residues stand in square brackets, D forms with d. Residues, ends and D or L forms follow the SMILES beside them. Aib = CC(C)(N)C(=O)O

Tests used:
[1] = biological target: T1, BoNT/A LC (Clostridium botulinum, UniProt P0DPI0); conditions: cited from earlier work; for IC50: read-out: Reported Ki (cell: IC50)
[2] = biological target: T1, BoNT/A LC; experiment: biochemical; type: biochemical; conditions: for Ki range in words: pH 7.3
Target sequence in this assay (P0DPI0 2-448 limits assumed): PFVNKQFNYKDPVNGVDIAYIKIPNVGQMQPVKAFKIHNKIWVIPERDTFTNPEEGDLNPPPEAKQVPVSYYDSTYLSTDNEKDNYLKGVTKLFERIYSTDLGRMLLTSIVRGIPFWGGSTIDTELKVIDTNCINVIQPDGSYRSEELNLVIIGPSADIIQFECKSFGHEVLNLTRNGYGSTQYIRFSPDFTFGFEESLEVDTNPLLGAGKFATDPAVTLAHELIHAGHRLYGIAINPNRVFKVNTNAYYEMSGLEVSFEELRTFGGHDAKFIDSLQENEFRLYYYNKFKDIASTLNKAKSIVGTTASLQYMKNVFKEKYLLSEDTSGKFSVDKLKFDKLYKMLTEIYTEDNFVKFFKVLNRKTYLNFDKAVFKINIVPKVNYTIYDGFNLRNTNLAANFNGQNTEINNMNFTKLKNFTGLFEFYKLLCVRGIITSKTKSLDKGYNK

Compound	IC50 [1] [µM]	Ki range in words [2]	Ki [2] [µM]	further results
QRATKM	133	–	–	Ki [1]: 133 µM
Fmoc-L-Leu-OH (0.124 g, 0.350 mmol, 3.50 equiv), Fmoc-L-Met-OH (0.130 g, 0.350 mmol, 3.50 equiv), Fmoc-L-Ala-OH (0.115 g, 0.350 mmol, 3.50 equiv), Fmoc-Aib-OH (0.114 g, 0.350 mmol, 3.50 equiv), Fmoc-L-1-Nal-OH (0.153 g, 0.350 mmol, 3.50 equiv), Fmoc-L-Arg(Pbf)-OH (0.227 g, 0.350 mmol, 3.50 equiv), Fmoc-L-Arg(Pbf)-OH (0.227 g, 0.350 mmol, 3.50 equiv) [JTH-NB72-35]	–	nM range	–	potency compared with I1 [2]: none of them were as potent as I1; potency rank among the three reported PLMs [2]: the most potent of the three reported PLMs
NC(N)=NCCC[C@H](N)C(=O)NO [ArgHX, arginine hydroxamate]	60	–	–	–
CSCC[C@H](NC(=O)[C@H](C)NC(=O)C(C)(C)NC(=O)[C@H](Cc1ccccc1)NC(=O)[C@H](CCCNC(=N)N)NC(=O)[C@@H](N)CCCNC(=N)N)C(=O)N[C@@H](CC(C)C)C(N)=O [JTH-NB72-39] (H-RRF[Aib]AML-NH2)	–	nM range	0.638 ± 0.092	–
O=C(/C=C/c1ccc(Cl)cc1)NO [4-chlorocinnamic hydroxamate]	15	–	–	–
CSCC[C@H](NC(=O)[C@H](C)NC(=O)C(C)(C)NC(=O)[C@H](Cc1c[nH]c2ccccc12)NC(=O)[C@H](CCCNC(=N)N)NC(=O)[C@@H](N)CCCNC(=N)N)C(=O)N[C@@H](CC(C)C)C(N)=O [JTH-NB72-38] (H-RRW[Aib]AML-NH2)	–	nM range	0.991 ± 0.117	–
